In ChEMBL document CHEMBL1201862, “PubChem BioAssay data set” (2004) one finds AC50, EC50 and IC50 data, which are given here for 32 compounds.

The source made the active and inactive calls.

Assay [1] addresses T1, Cytochrome P450 1A2 (Homo sapiens, UniProt P05177).
T1 sequence (P05177 whole entry): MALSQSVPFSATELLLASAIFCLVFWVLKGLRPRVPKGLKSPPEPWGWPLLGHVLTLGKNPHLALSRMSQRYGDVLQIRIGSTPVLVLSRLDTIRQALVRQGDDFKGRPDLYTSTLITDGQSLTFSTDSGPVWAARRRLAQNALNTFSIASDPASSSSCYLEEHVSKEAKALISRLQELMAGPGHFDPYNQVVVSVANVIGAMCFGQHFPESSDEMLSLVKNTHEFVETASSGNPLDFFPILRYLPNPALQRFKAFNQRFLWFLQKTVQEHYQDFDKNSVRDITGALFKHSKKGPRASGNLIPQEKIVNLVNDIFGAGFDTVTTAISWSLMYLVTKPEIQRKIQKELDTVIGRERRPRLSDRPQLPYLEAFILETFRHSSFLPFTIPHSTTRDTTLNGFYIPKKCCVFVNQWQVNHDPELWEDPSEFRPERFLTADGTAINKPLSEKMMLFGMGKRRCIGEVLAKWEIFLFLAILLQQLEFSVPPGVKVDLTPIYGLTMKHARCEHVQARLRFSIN

The target of assay [2] is Cytochrome P450 2C9 (Homo sapiens, UniProt P11712).
Sequence of Cytochrome P450 2C9 (P11712 whole entry): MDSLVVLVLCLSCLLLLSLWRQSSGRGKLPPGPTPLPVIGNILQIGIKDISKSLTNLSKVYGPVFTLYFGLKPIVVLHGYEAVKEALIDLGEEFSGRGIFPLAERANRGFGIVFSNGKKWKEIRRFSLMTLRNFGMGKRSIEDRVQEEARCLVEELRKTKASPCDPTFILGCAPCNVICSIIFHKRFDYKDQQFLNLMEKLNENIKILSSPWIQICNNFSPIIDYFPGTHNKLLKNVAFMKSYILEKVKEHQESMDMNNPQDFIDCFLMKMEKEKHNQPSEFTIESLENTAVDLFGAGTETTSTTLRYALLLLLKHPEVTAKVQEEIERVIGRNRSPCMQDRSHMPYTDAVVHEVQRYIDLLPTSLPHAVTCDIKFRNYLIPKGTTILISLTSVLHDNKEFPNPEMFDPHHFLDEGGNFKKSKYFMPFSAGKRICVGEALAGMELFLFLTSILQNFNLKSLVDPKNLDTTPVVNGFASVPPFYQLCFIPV
The nature of assay [3]: inhibitors of firefly luciferase expression or activity, dose response, H4 neuroglioma cells, luminescence (AID 1990). Type of assay: functional, cell-based.
The nature of assay [4]: Luminescence Cell-Based Dose Response HTS to Identify Inhibitors of 5'UTR Stem-Loop Driven Prion Protein mRNA Translation in H4 Neuroglioblastoma Cells. [Related pubchem assays: 1827 (Project Summary), 1813 (Primary HTS)]. Type of assay: functional.
Assay [5] in a line: inhibitors of SNCA 5'UTR-driven reporter translation, confirmation, H4 neuroglioma cells, luminescence (AID 1988). Type of assay: functional, cell-based.
For assay [6], the target named is Cytochrome P450 2C19 (Homo sapiens, UniProt P33261). The assay can be described thus: Cytochrome panel assay with activity outcomes. Panel member name: p450-cyp2c19 Compounds with AC50 equal or less than 10 uM are considered active. Type of assay: functional. The following applies: read-out: AC50.
Sequence of Cytochrome P450 2C19 (P33261 whole entry): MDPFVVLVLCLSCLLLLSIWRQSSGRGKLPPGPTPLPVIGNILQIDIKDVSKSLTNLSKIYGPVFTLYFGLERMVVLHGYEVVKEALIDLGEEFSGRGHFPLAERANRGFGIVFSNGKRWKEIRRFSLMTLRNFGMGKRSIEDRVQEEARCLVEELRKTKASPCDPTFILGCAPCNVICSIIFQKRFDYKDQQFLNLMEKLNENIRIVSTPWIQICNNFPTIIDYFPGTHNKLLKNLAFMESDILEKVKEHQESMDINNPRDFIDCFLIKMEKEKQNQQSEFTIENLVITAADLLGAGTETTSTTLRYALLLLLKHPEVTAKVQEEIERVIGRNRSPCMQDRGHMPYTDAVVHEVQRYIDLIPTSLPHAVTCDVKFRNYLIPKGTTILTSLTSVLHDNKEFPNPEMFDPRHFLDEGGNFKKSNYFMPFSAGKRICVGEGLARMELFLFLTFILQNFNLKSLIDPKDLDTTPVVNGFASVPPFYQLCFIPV
Assay [7] addresses T2, Ubiquitin-conjugating enzyme E2 N (Homo sapiens, UniProt P61088).
T2 sequence (P61088 whole entry): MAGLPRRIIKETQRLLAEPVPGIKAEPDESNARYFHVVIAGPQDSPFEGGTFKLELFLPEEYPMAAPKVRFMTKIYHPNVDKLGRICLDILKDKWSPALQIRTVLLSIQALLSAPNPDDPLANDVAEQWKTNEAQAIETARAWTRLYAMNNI
Type of assay: functional.

Assay [8] is described as follows: inhibitors of intracellular T. cruzi replication, confirmation, NIH3T3 host cells, beta-gal luminescence (AID 2044).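 Note: intracellular parasites grown in NIH/3T3 mouse fibroblasts as host cells; luminescent beta-galactosidase reporter signal from transgenic T. cruzi replicating inside host cells; inhibitors lower the luminescence signal.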 The format is functional, cell-based.
A short description of assay [9]: cytotoxicity toward NIH3T3 fibroblasts, dose response, counter-screen, cell-based, ATP luminescence, mouse fibroblasts (AID 2010).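 Note: cells exposed to compound for about 90 hours before reading.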 The format is functional. Background: Counterscreens check selectivity or assay interference.
The target in assay [10] is Cytochrome P450 3A4 (Homo sapiens, UniProt P08684).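 Note: CYP3A4 tested as one member of a cytochrome P450 panel screen.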
Sequence of Cytochrome P450 3A4 (P08684 whole entry): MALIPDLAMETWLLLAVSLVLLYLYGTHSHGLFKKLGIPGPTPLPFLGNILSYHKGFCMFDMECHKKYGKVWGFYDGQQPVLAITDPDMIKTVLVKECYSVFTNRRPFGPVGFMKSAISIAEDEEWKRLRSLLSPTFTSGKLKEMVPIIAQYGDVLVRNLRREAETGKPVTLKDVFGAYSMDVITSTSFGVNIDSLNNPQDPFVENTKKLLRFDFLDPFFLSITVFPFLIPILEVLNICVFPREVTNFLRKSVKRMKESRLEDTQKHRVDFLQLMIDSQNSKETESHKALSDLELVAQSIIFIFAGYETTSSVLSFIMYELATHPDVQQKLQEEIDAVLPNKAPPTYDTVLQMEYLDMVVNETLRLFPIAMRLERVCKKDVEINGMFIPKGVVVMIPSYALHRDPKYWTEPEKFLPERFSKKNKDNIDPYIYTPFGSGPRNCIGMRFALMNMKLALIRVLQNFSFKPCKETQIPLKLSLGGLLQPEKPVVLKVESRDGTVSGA
Assay [11] has as its target Luciferin 4-monooxygenase (Photinus pyralis, UniProt P08659). The assay can be described thus: firefly luciferase enzyme inhibitors, dose response, biochemical, luminescence (AID 1891).
A short description of assay [12]: Luminescence Cell-Based Dose Confirmation HTS to Identify Inhibitors of Platelet Dense Granule Release. [Related pubchem assays: 1663 (Primary HTS), 1678 (Summary of Project)]. Type of assay: functional.
The nature of assay [13]: Shn3 3'UTR reporter inhibitors, dose response, cell-based, Clone20 osteoblasts, firefly luciferase, cherry-picked (AID 624132).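 Note: firefly luciferase luminescence from reporter carrying the Shn3 3'UTR in osteoblasts.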 Type of assay: functional.
Assay [14] in a line: HepG2 cell cytotoxicity, dose response, cytotoxicity control for Shn3 inhibitor project, CellTiter-Glo, cherry-picked (AID 624134). Type of assay: functional, cell-based. In general terms: ATP-based viability assays read luminescence as a measure of living cells.
The nature of assay [15]: control 3'UTR Renilla luciferase suppression, dose response, counter-screen for Shn3 inhibitor project, cell-based, Clone20-Shn3RL, cherry-picked (AID 624133). The format is functional.
Assay [16] concerns the target Cytochrome P450 2D6 (Homo sapiens, UniProt P10635).
Assay [17] addresses T3, Corticotropin-releasing factor receptor 2/Corticotropin-releasing factor-binding protein (Homo sapiens, UniProt P24387+Q13324).
T3 sequence (Q13324 whole entry): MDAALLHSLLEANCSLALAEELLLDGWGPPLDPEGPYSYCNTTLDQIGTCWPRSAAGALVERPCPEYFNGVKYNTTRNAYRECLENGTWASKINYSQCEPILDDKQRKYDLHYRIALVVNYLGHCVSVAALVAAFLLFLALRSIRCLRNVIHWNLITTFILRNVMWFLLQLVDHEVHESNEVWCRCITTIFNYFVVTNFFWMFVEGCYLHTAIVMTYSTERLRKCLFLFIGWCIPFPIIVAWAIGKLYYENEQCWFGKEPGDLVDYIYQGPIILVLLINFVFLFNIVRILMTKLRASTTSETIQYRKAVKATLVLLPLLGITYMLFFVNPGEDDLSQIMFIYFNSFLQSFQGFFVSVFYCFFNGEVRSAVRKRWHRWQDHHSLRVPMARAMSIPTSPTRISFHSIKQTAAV
T3 sequence (P24387 whole entry): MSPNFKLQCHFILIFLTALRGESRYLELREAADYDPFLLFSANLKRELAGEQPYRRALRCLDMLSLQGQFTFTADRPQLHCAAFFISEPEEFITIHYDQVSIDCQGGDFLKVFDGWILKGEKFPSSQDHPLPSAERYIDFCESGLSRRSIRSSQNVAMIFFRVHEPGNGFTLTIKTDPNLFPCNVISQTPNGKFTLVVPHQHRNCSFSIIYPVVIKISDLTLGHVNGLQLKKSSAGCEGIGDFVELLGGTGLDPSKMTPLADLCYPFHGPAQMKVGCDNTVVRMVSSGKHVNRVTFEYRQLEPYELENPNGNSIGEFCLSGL
Nature of the assay: Dose Response confirmation of uHTS hits for small molecule antagonists of the CRF-binding protein and CRF-R2 receptor complex. The format is functional. The following applies: read-out: IC50_Mean.

The target in assay [18] is T3, Corticotropin-releasing factor receptor 2/Corticotropin-releasing factor-binding protein. The assay can be described thus: activators of CRF receptor 2 with binding protein – uHTS hits, confirmation (AID 602473). The format is functional. The following applies: read-out: EC50_Mean.

Sequence of Luciferin 4-monooxygenase (P08659 whole entry): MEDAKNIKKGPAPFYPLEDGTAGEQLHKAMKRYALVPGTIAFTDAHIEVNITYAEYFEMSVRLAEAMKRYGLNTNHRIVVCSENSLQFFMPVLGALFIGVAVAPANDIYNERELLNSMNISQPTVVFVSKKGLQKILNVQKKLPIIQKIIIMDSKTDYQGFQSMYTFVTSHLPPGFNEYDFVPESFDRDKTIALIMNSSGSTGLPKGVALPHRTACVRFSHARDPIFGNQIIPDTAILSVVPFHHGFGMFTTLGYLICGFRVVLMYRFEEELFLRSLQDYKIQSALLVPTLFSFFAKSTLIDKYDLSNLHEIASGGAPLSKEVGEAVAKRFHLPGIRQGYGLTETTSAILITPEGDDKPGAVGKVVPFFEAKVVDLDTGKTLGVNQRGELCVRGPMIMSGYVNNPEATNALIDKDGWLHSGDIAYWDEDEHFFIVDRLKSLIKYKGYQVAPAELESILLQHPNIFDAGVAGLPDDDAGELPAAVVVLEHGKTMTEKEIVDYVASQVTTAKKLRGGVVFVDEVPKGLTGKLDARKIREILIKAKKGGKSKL
Sequence of Cytochrome P450 2D6 (P10635 whole entry): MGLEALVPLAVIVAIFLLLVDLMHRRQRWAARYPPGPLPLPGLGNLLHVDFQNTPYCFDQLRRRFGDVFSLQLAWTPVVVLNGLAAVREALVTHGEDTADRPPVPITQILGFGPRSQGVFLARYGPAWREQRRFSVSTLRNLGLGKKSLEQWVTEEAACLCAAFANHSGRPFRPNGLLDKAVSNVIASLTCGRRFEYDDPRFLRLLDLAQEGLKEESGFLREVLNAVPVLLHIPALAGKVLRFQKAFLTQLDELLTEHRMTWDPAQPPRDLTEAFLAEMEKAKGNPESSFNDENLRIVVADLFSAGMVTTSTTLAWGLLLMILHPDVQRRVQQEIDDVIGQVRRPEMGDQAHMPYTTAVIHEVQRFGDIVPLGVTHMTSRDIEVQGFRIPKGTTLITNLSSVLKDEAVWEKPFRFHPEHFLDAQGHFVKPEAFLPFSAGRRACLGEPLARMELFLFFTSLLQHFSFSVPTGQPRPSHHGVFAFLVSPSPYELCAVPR

As for `COC(=O)[C@@]1(Cc2ccc(OC)cc2)[C@@H]2[C@@H](CC(=O)[C@H]2CC(=O)C(=O)N(C)C)CN1C(=O)c1ccccc1`, the AC50 (usually the concentration at which the activity in the assay is half-maximal) is 2 µM (inconclusive) in [1] and 39.8 µM (inconclusive) in [2].
Take `Sc1nnc(CSCc2ccccc2Cl)n1-c1ccccc1`: the AC50 was 22.4 µM (inconclusive) in assay [1] and 5.01 µM (inconclusive) in assay [2].
For the compound `CC(C)CCn1nc(C(=O)Nc2nc3c(s2)CCCC3)c2ccccc2c1=O`, the EC50 in [3] was 16.9 µM (active); in [4], 12.9 µM (active); in [5], 12.8 µM (active).
On to `Cc1ccc(S(=O)(=O)N2CCN(C(=O)CN3CCN(C)CC3)C2)cc1`, for which the figures for the AC50 in assay [6] and in assay [1] were 28.2 µM (inconclusive) and 15.8 µM (inconclusive), respectively.
Consider `Cc1cccc(N2CCc3c2nc2ccccc2c3N)c1`, for which the IC50 in assay [7] was > 20 µM (inactive).
For `Cc1cc(C)c(S(=O)(=O)Nc2cccc(C(F)(F)F)c2)c(C)c1`, in assay [1], the concentration at half-maximal activity (AC50) was 39.8 µM (inconclusive).
Regarding `CS(=O)(=O)N1CCN(c2c(Cl)cccc2[N+](=O)[O-])CC1`, the AC50 is 28.2 µM (inconclusive) in assay [1] and 0.251 µM (inconclusive) in assay [2].
As to `CC1(C)Cc2nc3sc4c(SCC(=O)NCc5ccccc5)ncnc4c3cc2CO1`, the EC50 in assay [4] is > 120 µM (not active); in assay [5], 3.72 µM (active).
With `NCC12CC3CC(C1)CC(c1ccc(Cl)cc1)(C3)C2`, the EC50 in assay [8] was 2.19 µM (active); in assay [9], > 60 µM (inconclusive). In addition, the IC50 in assay [7] is > 20 µM (inactive).
Take `Cc1ccc(-n2nc3c(=O)n(CC(=O)NCc4ccc(C)o4)nc(C)c3c2C)cc1`: the EC50 is 17.8 µM (active) in assay [3], 109 µM (active) in assay [4] and > 120 µM (not active) in [5].
`CN(C)CCN(C)CCc1ccc(Cl)c(Cl)c1`: in assay [1], the AC50 was 39.8 µM (inconclusive).
With `O=C(O)CCC/C=C\C[C@@H]1CO[C@H](C(F)(F)F)O[C@@H]1c1ccccc1O`, the concentration at half-maximal activity (AC50) was 10 µM (inconclusive) in [6], 39.8 µM (inconclusive) in assay [1], 15.8 µM (inconclusive) in assay [10] and 20 µM (inconclusive) in assay [2].
Regarding `CCNc1ncc2nc(-c3ccc(OC)cc3)c(=O)n(CCOC)c2n1`, the figures for the AC50 in assay [1] and in assay [10] were 1.26 µM (inconclusive) and 15.8 µM (inconclusive), respectively.
In the case of `CCOC(=O)c1c(NC(=O)Cc2cccs2)sc(C(=O)N2CCCCC2)c1C`, the EC50 in [3] is 14.6 µM (active); in assay [4], 22.2 µM (active); in assay [5], > 120 µM (not active).
The corresponding values for `CCCC(=O)Nc1cc(C(=O)N2CCC3(CC2)OCCO3)ccc1S(=O)(=O)c1ccc(C)cc1` are > 120 µM (not active), > 120 µM (not active) and > 120 µM (not active).
As to `O=C(CSc1nnc2ccccn12)NNC(=O)c1ccc([N+](=O)[O-])cc1`, the EC50 in assay [11] and in [12] was > 112 µM (not active) throughout.
Consider `COc1ccccc1OC[C@H](O)COC(N)=O`, for which the AC50 in assay [1] was 10 µM (inconclusive).
Take `Cc1ccc(CNc2nc(N)c([N+](=O)[O-])c(Nc3ccc(F)cc3)n2)cc1`: the concentration at half-maximal activity (AC50) in assay [1] was 1.12 µM (inconclusive); in assay [10], 2 µM (inconclusive); in assay [2], 3.55 µM (inconclusive).
As for `O=C(c1ccncc1)N1CCC[C@@]2(CCN(c3ccccn3)C2)C1`, the half-maximal activity concentration (AC50) in [1] and in assay [2] was 20 µM (inconclusive) in each case.
Consider `COC(=O)c1c(-c2cccc3ccccc23)csc1NC(=O)Cc1ccc(OC)c(OC)c1`, for which the EC50 was > 112 µM (not active) in assay [11], > 112 µM (not active) in assay [12], 2.49 µM (active) in assay [8] and 12.6 µM (active) in assay [9]. Further, the AC50 in assay [13] is 5.43 µM (active); in [14], > 70 µM (inactive); in assay [15], 16.9 µM (active).
As to `Nc1nc2sc3c(c2cc1C(=O)N1CCOCC1)CCCC3`, the EC50 in assay [11] and in assay [12] was > 112 µM (not active) in each case.
In the case of `O=C(CN1CCCCC1)Nc1cccc([N+](=O)[O-])c1`, the concentration at half-maximal activity (AC50) in [6] is 14.1 µM (inconclusive); in assay [16], 15.8 µM (inconclusive); in [1] it was 39.8 µM (inconclusive).
As to `O=C(CSc1nnc(-c2cccc(S(=O)(=O)N3CCOCC3)c2)n1C1CCCCCC1)NCc1ccccc1`, the concentration at half-maximal activity (AC50) in assay [6] was 31.6 µM (inconclusive); in assay [16], 7.94 µM (inconclusive); in assay [1] it was 39.8 µM (inconclusive); in assay [2], 14.1 µM (inconclusive).
Take `CCOC(=O)c1cc(C)sc1NC(=O)CCC(=O)O`: the IC50 in assay [17] is > 47.1 µM (inactive). Also, in assay [18], the EC50 was > 53 µM (inactive).
Regarding `C#CCOCCOCCOCCNc1nc(N2CCN(C(=O)[C@H]([C@@H](C)CC)n3cc(CCCCN)nn3)CC2)nc(N2CCN(C(=O)[C@H]([C@@H](C)CC)n3cc(CCCN=C(N)N)nn3)CC2)n1`, the IC50 in [7] was > 20 µM (inactive).
The same measure, in the same setting: in the case of `C#CCOCCOCCOCCNc1nc(N2CCN(C(=O)C([C@@H](C)O)n3cc([C@@H](N)CCCCN)nn3)CC2)nc(N2CCN(C(=O)[C@H](CCCCN)n3cc([C@@H](N)CC(N)=O)nn3)CC2)n1` (stereo partly drawn) it was > 20 µM (inactive); in that of `CCC[C@@H](CN1CCC[C@H]1CN1C(N)=NC[C@H]1C(C)C)N1C[C@@H](Cc2ccccc2)N(CCCC2CCCC2)C1=N`, > 20 µM (inactive).
With `COc1ccc(C2=Nc3ccccc3C2(O)CCN2C(=O)c3ccccc3C2=O)cc1` (stereo not drawn), the IC50 in assay [17] was > 47.1 µM (inactive). Moreover, the EC50 in assay [18] is > 53 µM (inactive).
The corresponding values for `O=C(NCCc1cccnc1)C1CCC(=O)N(Cc2ccc(Cl)cc2)C1` (stereo not drawn) are > 47.1 µM (inactive) and > 53 µM (inactive).
Consider `O=C(O)[C@H]1C[C@@H](CP(=O)(O)O)CCN1`, for which, in [1], the AC50 was 25.1 µM (inconclusive).
In the case of `CCOc1cccc(-c2c(C(=O)N/N=C/c3ccco3)nnn2-c2nonc2N)c1`, the results for the EC50 in [11] and in [12] were > 112 µM (not active) and 14.8 µM (active), respectively.
With `CO/C(O)=C1\C(C)=Nc2nnnn2C1c1cc(OC)ccc1OC` (stereo not drawn), the figures for the EC50 in assay [3], in assay [4] and in assay [5] were > 120 µM (not active), 18.3 µM (active) and > 120 µM (not active), respectively.
